Test results from patent US11931335B2, “Enhancing autophagy or increasing longevity by administration of urolithins or precursors thereof” (Amazentis SA, priority 2012, dated 2024).

How the values were obtained:
[1] = system: C. elegans wild-type Bristol N2; assay: Lifespan of wild-type C. elegans; assay type: in vivo; conditions: for Mean Life Extension (%): Genotype: N2, fed live E. coli (OP50); for median lifespan increased by: FIG. 5; for Lifespan extension compared to control (%): 50 μM UA vs 1% DMSO
Description: C. elegans strains were cultured at 20° C. on nematode growth media (NGM) agar plates seeded with E. coli strain OP50. Strain used was wild-type Bristol N2 provided by the Caenorhabditis Genetics Center (University of Minnesota). All Compounds were dissolved in DMSO. Animals were exposed to compounds from eggs on plates seeded with live OP50 bacteria. Control plates were prepared with the corresponding concentrations of DMSO (0.1%). For lifespan tests, worms were observed using a Nikon SMZ1500 stereomicroscope (Nikon, Melville, NY, USA). […] After 3 days (corresponding to day 0), newly developed 60 to 100 L4 worms were used per condition, scored and transferred to fresh plates every 3 days starting from day 1 (young adult worms). All lifespan experiments were performed at 20° C.
Lifespan assays were performed with (A) wild-type (N2), (B) sir-2.1(ok434) mutant, (C) aak-2(ok524), (D) daf-16(mu86), (E) eat-2(ad465) and (F) daf-2(e1370) mutant strains of C. elegans maintained during their full life on plates supplemented with either 50 μM of urolithin A or with a control treatment and seeded with OP50 bacteria. Control plates without urolithin A contained an equivalent concentration of DMSO. Worm lifespan assays were performed at 20° C.

ModeK cells = assay: Autophagy western blot in ModeK cells; assay type: cell-based, mouse; conditions: 10 μM, 20 μM and 50 NM, eight hours
Description: The ability of urolithins to induce autophagy in mammalian cells was also examined. ModeK cells derived from intestine, were cultured in RPMI 1640 medium including 4.5 g/L glucose, 10% fetal calf serum, 1 mM Sodium Pyruvate, 10 mM HEPES, 0.1 mM NEAA, 2-Mercaptoethanol Penicillin 100 UI/mL and Streptomycin 100 μg/mL. Cells were cultured at 37° C. under a 5% CO2 atmosphere. Cells were treated with increasing concentrations of urolithin A (10 μM, 20 μM and […]). Treatment was performed for eight hours, after which cells were lysed and prepared for Western Blot analysis. Protein expression levels were examined for autophagy related proteins LC3-I and II (Cell Signaling antibody #4108), p62 (Cell Signalling antibody #5114), AMPKα (Cell Signaling antibody #2603), and p-AMPKα(Cell Signaling antibody #2531). The housekeeping protein, HSP90 (BD Transduction Laboratories antibody #610418) level was measured as a loading control.

mouse C2C12 myoblasts = assay: Autophagy western blot in C2C12 myoblasts; assay type: cell-based; conditions: 10 μM, 20 μM, and 50 μM, 16 hours
Description: C2C12 myoblast were cultured in Dulbecco's modified Eagle's medium (DMEM) including 4.5 g/L glucose, 20% fetal calf serum, and 50 μg/mL gentamicin. Urolithin A was dissolved in DMSO in a stock solution of […]. Cells were treated at final concentrations of urolithin A of 10 μM, 20 μM, and 50 μM for a period 16 hours. Control cells were treated with DMSO at an equivalent final concentration for the same period and served as the untreated control.
At the end of treatment, cells were lysed with RIPA buffer and applied to SDS-PAGE and analyzed by western blot. Protein expression levels were examined for autophagy-related proteins LC3-I and LC3-II (Cell Signaling antibody #4108), p62 (Cell Signaling antibody #5114), AMPKα (Cell Signaling antibody #2603), and p-AMPKα(Cell Signaling antibody #2531). The housekeeping protein, R-actin (Cell Signaling Antibody #4967) level was measured as a loading control.

[2] = system: Human Aortic Endothelial Cells (HAOEC); assay: Autophagy western blot in human aortic endothelial cells; assay type: cell-based; conditions: 16 hours
Description: Human Aortic Endothelial Cells (HAOEC) are primary endothelial cells isolated from normal human aorta. They were sourced from Cell Applications Inc. (CAI), San Diego, USA and obtained cryopreserved at the second passage from the European Collection of Cell Cultures (ECACC). The cells were thawed and cultured with Endothelial Cell Growth Medium, provided by the ECACC, catalog number 06091509 (CAI No. 211-500), in a 37° C., 5% CO2 humidified incubator; media was changed 24 hours after thawing. Endothelial Cell Growth Medium was changed every other day until the cells reached 80% confluency. Cells were then subcultured into four 6-well dishes and after overnight incubation were treated with different concentrations of urolithin A, 10 μM, 20 μM, and 50 μM, or a DMSO control for a period of 16 hours, 3 wells per treatment. Control cells were treated with DMSO at an equivalent final concentration for the same period and served as the untreated control.
At the end of treatment, cells were lysed with RIPA buffer and applied to SDS-PAGE and analyzed by western blot. Protein expression levels were examined for autophagy-related proteins LC3-I and LC3-II (Cell Signaling antibody #4108), and p62 (Cell Signaling antibody #5114). The housekeeping protein, HSP90 (BD Transduction Laboratories antibody #610418) level was measured as a loading control.

aged C57BL/6J mice = assay: Locomotor activity by infrared detection in aged mice; assay type: in vivo, mouse; conditions: 50 mg/kg/day, 34 weeks, 12 hour dark period, FIG. 23
Description: Locomotor activity may be also assessed by measuring animal movements using infrared detection. To determine the effects of urolithin A on spontaneous locomotor activity in aged animals, 16-month-old C57BL/6J mice were treated with either a standard rodent diet or a diet containing urolithin A mixed with food to reach a dosing of 50 mg/kg/day delivered to mice. Following 34 weeks of treatment with urolithin A, mice were placed in a locomotor activity monitoring system, TSE Systems. Infrared transmitters and receivers are placed in the x, y, and z axis. Interruption of the infrared beams in the x, y axis by the passage of the mouse, allows for a measurement of the horizontal movement (ambulation). Interruption of the infrared beams in the z axis by the mouse, allows for the measurement of rearing behavior. Each beam interruption results in one count being recorded. Total counts were measured for each 30 minute period over a two day period. The total counts observed during the 12 hour dark period, which corresponds to the time of highest activity in mice, were summed for each animal.

With `O=c1oc2cc(O)ccc2c2ccc(O)cc12` [Urolithin A, urolithin A] the “Mean Life Extension (%)” value ([1]; dose 10 μM) was 27.7%, the “Mean Life Extension (%)” value ([1]; dose 50 μM) was 75% and the “median lifespan increased by” value ([1]; concentration of 50 µM) was 75%. The “effect on lifespan in C. elegans” value ([1]; concentration of 50 µM, exposed from eggs, FIG. 4) was “extended the lifespan”, the “median lifespan increased by” value ([1]; concentration of 10 M) was 27.7% and the “Median lifespan” value ([1]; wild-type (N2), 50 μM UA) was 28 days. The “Lifespan extension compared to control (%)” value ([1]; wild-type (N2)) was 75%, the “Lifespan extension compared to control (%)” value ([1]; wild-type (N2), listed as UA) was “+75%” and the “levels of p62” value (ModeK cells) was “decreased”. The “ratio of LC3-II/LC3-I vs vehicle-treated cells” value (ModeK cells; FIG. 14) was no more than 10 fold, the “levels of p62” value (mouse C2C12 myoblasts) was “decrease” and the “ratio of pAMPKα/AMPKα” value (mouse C2C12 myoblasts) was “increasing several fold”. For the same compound, the “ratio of LC3-II to LC3-I” value (mouse C2C12 myoblasts; FIG. 16) was “dose-dependent increase”, the “levels of p62” value ([2]; 10 μM, 20 μM, and 50 μM) was “decrease” and the “ratio of LC3-II to LC3-I, induction” value ([2]; 50 μM of urolithin A, FIG. 18) was no more than 3 fold. For the same compound, the increase in ambulation (aged C57BL/6J mice) was 14% and the increase in rearing (aged C57BL/6J mice) was 25%.
